Test results from ChEMBL document CHEMBL3885861, “Open TG-GATES”.
*1 amine or outer side, *2 acyl side, *3 side chain or, on linkers, in order; H or OH if unused. Where a SMILES comes first, the peptide text is derived from it. Bridges are numbered along the chain shown (N, C = ends). [ ]: non-standard residue; d: D form. Trp(2-yl) = O=C([C@H](Cc1c([*:3])[nH]c2ccccc12)N[*:1])[*:2]; Leu(4R-OH,5-OH) = C[C@](O)(CO)C[C@H](N)C(=O)O; cisHyp = O=C(O)[C@@H]1C[C@H](O)CN1

Species: Rattus norvegicus
Assay: Open TG-GATES - Regimen: Daily Repeat
Assay type: toxicity, organism-based, Sprague-Dawley
Parameters: regimen Daily Repeat, gender Male, age 6 weeks
Settings: in vivo, ip, route intraperitoneal injection; for APTT / Bas / Eos / Fbg / Hb / Ht / Lym / MCH / MCHC / MCV / Mono / Neu / PT / Plat / RBC / Ret / WBC: tissue Blood; for KIDNEY_L / KIDNEY_R / KIDNEY_TOTAL: tissue Kidney; for LIVER: tissue Liver; for A/G / ALP / ALT / AST / BUN / CRE / Ca / Cl / DBIL / GLC / IP / K / LDH / Na / PL / RALB / TBIL / TC / TG / TP / gamma-GTP: tissue Plasma
[1] = 0 mg/kg, 72 h, dose level Control, time 3 day
[2] = 0 mg/kg, […], dose level Control, time 7 day
[3] = 1 mg/kg, 72 h, dose level High, time 3 day
[4] = 1 mg/kg, […], dose level High, time 7 day

C[C@@H]1NC(=O)[C@H](C[C@@](C)(O)CO)NC(=O)[C@@H]2Cc3c([nH]c4ccccc34)SC[C@H](NC(=O)[C@@H]([C@H](C)O)NC1=O)C(=O)N1C[C@@H](O)C[C@H]1C(=O)N[C@@H](C)C(=O)N2 [PHALLOIDIN] (cyclo(A[dT]C[cisHyp]A[Trp(2-yl)][Leu(4R-OH,5-OH)]); thioether 3-6)
TERMINAL_BW [1]: 224.8 g
APTT [1]: 23.1 s
Bas [1]: 0%
Eos [1]: 1%
Fbg [1]: 328 mg/dL
Hb [1]: 13 g/dL
Ht [1]: 40.4%
Lym [1]: 83%
MCH [1]: 20.5 pg
MCHC [1]: 32.2%
MCV [1]: 63.5 fL
Mono [1]: 2.8%
Neu [1]: 12.6%
PT [1]: 16.3 s
Plat [1]: 118.5 x10_4/uL
RBC [1]: 636.6 x10_4/ul
Ret [1]: 6.8%
WBC [1]: 113.9 x10_2/uL
KIDNEY_L [1]: 1 g
KIDNEY_R [1]: 1 g
KIDNEY_TOTAL [1]: 1.9 g
LIVER [1]: 10.4 g
A/G [1]: 1.3
ALP [1]: 1525.8 IU/L
ALT [1]: 42 IU/L
AST [1]: 66.8 IU/L
BUN [1]: 17.4 mg/dL
CRE [1]: 0.2 mg/dL
Ca [1]: 10.8 mg/dL
Cl [1]: 105.4 meq/L
DBIL [1]: 0 mg/dL
GLC [1]: 201.4 mg/dL
IP [1]: 8.4 mg/dL
K [1]: 4.7 meq/L
LDH [1]: 177.6 IU/L
Na [1]: 140.8 meq/L
PL [1]: 139.6 mg/dL
RALB [1]: 3.1 g/dL
TBIL [1]: 0 mg/dL
TC [1]: 78 mg/dL
TG [1]: 116.4 mg/dL
TP [1]: 5.5 g/dL
gamma-GTP [1]: 1.6 IU/L
TERMINAL_BW [2]: 261.3 g
APTT [2]: 23.5 s
Bas [2]: 0%
Eos [2]: 1%
Fbg [2]: 322.2 mg/dL
Hb [2]: 12.9 g/dL
Ht [2]: 39.5%
Lym [2]: 80%
MCH [2]: 20.4 pg
MCHC [2]: 32.6%
MCV [2]: 62.5 fL
Mono [2]: 1.8%
Neu [2]: 16.2%
PT [2]: 15.6 s
Plat [2]: 135.8 x10_4/uL
RBC [2]: 632.2 x10_4/ul
Ret [2]: 6.8%
WBC [2]: 114.9 x10_2/uL
KIDNEY_L [2]: 1.1 g
KIDNEY_R [2]: 1.2 g
KIDNEY_TOTAL [2]: 2.3 g
LIVER [2]: 11.8 g
A/G [2]: 1.2
ALP [2]: 1235.4 IU/L
ALT [2]: 36.6 IU/L
AST [2]: 63.4 IU/L
BUN [2]: 18 mg/dL
CRE [2]: 0.2 mg/dL
Ca [2]: 10.4 mg/dL
Cl [2]: 105.8 meq/L
DBIL [2]: 0 mg/dL
GLC [2]: 189.8 mg/dL
IP [2]: 8.2 mg/dL
K [2]: 4.4 meq/L
LDH [2]: 160.4 IU/L
Na [2]: 142.6 meq/L
PL [2]: 130.8 mg/dL
RALB [2]: 2.9 g/dL
TBIL [2]: 0.008 mg/dL
TC [2]: 75 mg/dL
TG [2]: 88.6 mg/dL
TP [2]: 5.4 g/dL
gamma-GTP [2]: 2.8 IU/L
TERMINAL_BW [3]: 218.4 g
APTT [3]: 19.4 s
Bas [3]: 0%
Eos [3]: 1.2%
Fbg [3]: 270.8 mg/dL
Hb [3]: 13.5 g/dL
Ht [3]: 42.3%
Lym [3]: 78.2%
MCH [3]: 20.3 pg
MCHC [3]: 32%
MCV [3]: 63.4 fL
Mono [3]: 3.2%
Neu [3]: 16.8%
PT [3]: 15.5 s
Plat [3]: 119.3 x10_4/uL
RBC [3]: 667.2 x10_4/ul
Ret [3]: 6.7%
WBC [3]: 88.5 x10_2/uL
KIDNEY_L [3]: 1.1 g
KIDNEY_R [3]: 1.1 g
KIDNEY_TOTAL [3]: 2.1 g
LIVER [3]: 12 g
A/G [3]: 1.1
ALP [3]: 2057 IU/L
ALT [3]: 49 IU/L
AST [3]: 85.6 IU/L
BUN [3]: 13.2 mg/dL
CRE [3]: 0.1 mg/dL
Ca [3]: 11.1 mg/dL
Cl [3]: 105.4 meq/L
DBIL [3]: 0.066 mg/dL
GLC [3]: 168.8 mg/dL
IP [3]: 8.3 mg/dL
K [3]: 5.2 meq/L
LDH [3]: 169.2 IU/L
Na [3]: 140.4 meq/L
PL [3]: 153.6 mg/dL
RALB [3]: 3 g/dL
TBIL [3]: 0.084 mg/dL
TC [3]: 107.4 mg/dL
TG [3]: 24.2 mg/dL
TP [3]: 5.8 g/dL
gamma-GTP [3]: 1.6 IU/L
TERMINAL_BW [4]: 244 g
APTT [4]: 17.6 s
Bas [4]: 0%
Eos [4]: 1.2%
Fbg [4]: 254.4 mg/dL
Hb [4]: 13.7 g/dL
Ht [4]: 41.8%
Lym [4]: 79.6%
MCH [4]: 19.6 pg
MCHC [4]: 32.9%
MCV [4]: 59.6 fL
Mono [4]: 3%
Neu [4]: 15.8%
PT [4]: 14.8 s
Plat [4]: 150.8 x10_4/uL
RBC [4]: 702.8 x10_4/ul
Ret [4]: 4.1%
WBC [4]: 147.5 x10_2/uL
KIDNEY_L [4]: 1.1 g
KIDNEY_R [4]: 1.1 g
KIDNEY_TOTAL [4]: 2.2 g
LIVER [4]: 13.9 g
A/G [4]: 0.8
ALP [4]: 2253.4 IU/L
ALT [4]: 86.2 IU/L
AST [4]: 202.2 IU/L
BUN [4]: 15 mg/dL
CRE [4]: 0.1 mg/dL
Ca [4]: 10.7 mg/dL
Cl [4]: 104.6 meq/L
DBIL [4]: 0.3 mg/dL
GLC [4]: 177.8 mg/dL
IP [4]: 7.3 mg/dL
K [4]: 4.8 meq/L
LDH [4]: 258.2 IU/L
Na [4]: 141 meq/L
PL [4]: 168 mg/dL
RALB [4]: 2.6 g/dL
TBIL [4]: 0.4 mg/dL
TC [4]: 115.6 mg/dL
TG [4]: 28.6 mg/dL
TP [4]: 5.8 g/dL
gamma-GTP [4]: 3.2 IU/L
